Measurements: US10179914B2, “CDC25A inhibitor for the treatment of drug resistant cancer or for the prevention of tumor relapse” (INSERM (INSTITUT NATIONAL DE LA SANTÉ ET DE LA RECHERCHE …, priority 2014, dated 2019)

Legend:
[1] = system: human Hep 3B tumor cells; settings: read-out: IC50 growth of human Hep 3B tumor cells; cited from earlier work
[2] = system: transplanted rat hepatoma cells (Fisher F344); settings: delivered intraperitoneally; cited from earlier work
[3] = system: CDC25A; test: CDC25A protein level by western blot; assay type: cell-based, human; settings: for CDC25A protein level: 2 hours
Method: (a) MV4-11 (left panel) and MOLM-14 (right panel) FLT3-ITD expressing cells were treated for 2 hours with FLT3 inhibitor III (100 nM), and the protein levels of CDC25A, CDC25B, CDC25C, Cyclin A, Cyclin D1 and p27Kip1 were analyzed by western blot. (b) MOLM-14 (FLT3-ITD postive), KG1 and HL-60 (FLT3 wt positive) and K562 (FLT3 negative) cell lines were treated for 2 hours with FLT3 inhibitor III and the level of CDC25A was analyzed by western blot. Actin was used as a loading control.
(a) MV4-11 (left panel) and MOLM-14 (right panel) cells were treated for 2 hours with STAT5 inhibitor (100 nM). CDC25A, Pim1, and STAT5 protein and phosphorylation levels were analyzed by western blot. (b) MV4-11 and MOLM-14 cells were transfected for 24 hours with STAT5A/B siRNA and the impact on CDC25A protein level was analyzed by western blot. […] Actin was used as a loading control in these experiments. ns: non specific.
(a) MV4-11 cells were first treated by cycloheximide (50 μg/mL) for 90 minutes in order to completely down regulate CDC25A. […] The FLT3 inhibitor was added 30 minutes before medium wash. This western blot is representative of three independent experiments. […] (b) CDC25A mRNA expression was measured by quantitative RT-PCR after FLT3 inhibition for 2 hours (100 nM). […] (c) MV4-11 cells were treated with cycloheximide (50 μg/mL) for the indicated times. FLT3 inhibitor III (100 nM) was added 30 minutes before cycloheximide treatment, and left in the medium. This western blot is representative of three independent experiments.
Cell lines and reagents. […] Concerning MOLM-14 cell line, the presence of a monoallelic 21 bp FLT3-ITD mutation and of an MLL-containing ins(11; 9)(q23;p22p23) were verified (Hematology laboratory of Toulouse University Hospital, Prof E. Delabesse and Dr I. Luquet). KG1 and HL-60 (ACC-14 and ACC-3, DSMZ) cell lines were grown in Iscove's Modified Dulbecco's Medium (IMDM, Gibco) plus 20% FBS. All cells were grown in the presence of 100 units/ml of penicillin and streptomycin (Invitrogen) at 37° C. and 5% CO2.
siRNA. The MV4-11 cell line was transfected with the Amaxa nucleofection technology (Lonza, Koeln, Germany). […] Twenty-four or forty-eight hours after transfection, cells were counted (trypan blue staining), and western blotting was performed.
Western blot. 2×10^6 cells were usually lysed in 100 μL of NuPAGE® LDS Sample Buffer (Novex, Life Technologies, Carlsbad, Calif., USA), sonicated for 15 seconds, and boiled for 3 minutes. Proteins were then resolved on NuPAGE® 4-12% Bis-Tris Gels and transferred to nitrocellulose membrane. Saturation of the membrane was done for 1 hour in Tris Buffer Saline with Tween 0.1% (TBS-T) containing 5% non-fat milk or 5% bovine serum albumin. Membranes were blotted with proper antibodies overnight at 4° C., washed thrice with TBS-T, and incubated for 30 minutes with HRP-conjugated secondary antibody (Promega, Madison, Wis., USA).

[4] = system: CDC25A mRNA; test: CDC25A mRNA by quantitative RT-PCR; assay type: cell-based, human; settings: two hours, 100 nM, MOLM-14 cells
Method: (a) MV4-11 cells were first treated by cycloheximide (50 μg/mL) for 90 minutes in order to completely down regulate CDC25A. Cells were then placed in normal culture conditions in the presence (lower panel) or the absence (upper panel) of FLT3 inhibitor (100 nM), and western blot analysis of CDC25A was performed at the indicated times. The FLT3 inhibitor was added 30 minutes before medium wash. This western blot is representative of three independent experiments. […] (b) CDC25A mRNA expression was measured by quantitative RT-PCR after FLT3 inhibition for 2 hours (100 nM). […] (c) MV4-11 cells were treated with cycloheximide (50 μg/mL) for the indicated times. FLT3 inhibitor III (100 nM) was added 30 minutes before cycloheximide treatment, and left in the medium. This western blot is representative of three independent experiments.
Quantitative RT-PCR. Total RNA was extracted by RNeasy Kit (Qiagen) according to the manufacturer. RNA quality and purity was assessed by using the Agilent RNA 6000 Nano kit (Agilent Technologies, Santa Clara, Calif., USA). cDNA was generated with the SuperScript III First-Strand Synthesis System for RT-PCR (Invitrogen) following the manufacturer instructions. […] Results were analyzed with the LightCycler®480 software release 1.5.0 SP4 using the conventional ΔΔCt method.

[5] = system: MOLM-14 and MV4-11 cells; test: Differentiation of FLT3-ITD AML cell lines (surface markers, morphology); assay type: cell-based, human; settings: another CDC25 inhibitor
Method: (a-b) MOLM-14 and MV4-11 cells were treated for different times with IRC-083864 (100 nM and 200 nM) and the expression of the cell surface markers CD11b, CD14 and CD15 were followed by flow cytometry analysis. (c) MOLM-14 and MV4-11 cells were treated for different times with IRC-083864 (100 nM) and morphological changes were estimated by microscopy after cells were cytospun and stained at days 8 and 13. Original magnification ×100. (d) MOLM-14 cells were treated for different times with IRC-083864 (100 nM) and c-myc expression as well as C/EBPα phosphorylation on serine 21 were analyzed by western blot at day 1, and C/EBPε expression after 6 days of treatment. (e) MOLM-14 cells were transfected with CDC25A shRNA The expression of the cell surface markers CD11b, CD14 and CD15 were followed by flow cytometry analysis at day 3 and 6 (upper panel), and their morphology was analyzed by microscopy after 6 days (lower panel). Original magnification ×100. (f) MOLM-14 cells were transfected with CDC25A siRNA, and their morphology was analyzed by microscopy after 3 days (upper panel). Original magnification ×100. The efficiency of CDC25A siRNA was assessed by western blot analysis (lower panel).
Lentiviral infections. To generate lentiviral vectors expressing CDC25A protein, sequences were cloned into the pTrip-TAL-Ires-GFP lentiviral vector. We used 293-T packaging cells, co-transfected with lentiviral protein (GAG, POL, and ENV) encoding plasmids, and plasmids containing a control or CDC25A genes, separately. Supernatants containing lentivirus were collected 48 h after transfection, during 3 consecutive days. MOLM-14 cells were plated at 5×10^5 cells in 200 μl in serum-free medium and 5 μl of lentiviral supernatant was added during 3 h. Cells were then grown in 10% FBS RPMI medium.
Flow cytometry. Apoptotic cells were detected with Annexin V-FITC detection kit from BD Pharmingen (San Diego, Calif., USA) according to the manufacturer instructions. To evaluate AML cell differentiation, cells were stained for 30 min with the following anti-human monoclonal antibodies: CD11b-PE (Beckman Coulter), CD14-FITC (BD Biosciences), CD15-APC (BD Biosciences). For patient samples, additional hCD45-APC-H7 (BD Biosciences), Annexin V-Pacific Blue (BioLegend, San Diego, Calif., USA) and 7-AAD (Sigma) were used; and for bone marrow mice cells, additional CD33-FITC, CD44-PE Cy7, mCD45-PerCP Cy 5.5, CD14-Alexa 700 were used. Data were collected on a LSRII or a LSRFortessa cytometer (BD Biosciences), and analyzed with FlowJo software. A minimum of 10,000 events was collected.
Morphological examination. […] were spun at 500 rpm for 5 minutes onto glass slides and May-Grünwald-Giemsa stained at the Toulouse University Hospital hematology laboratory.

[6] = system: FLT3-wild type primary AML samples; test: Differentiation of FLT3 wild-type primary AML samples; assay type: cell-based, human; settings: same conditions
Text: Patient samples. Patient AML samples were obtained after informed consent in accordance with the Declaration of Helsinki and stored at the HIMIP collection. According to the French law, HIMIP collection has been declared to the Ministry of Higher Education and Research (DC 2008-307 collection 1) and obtained a transfer agreement (AC 2008-129) after approbation by ethical committees (Comité de Protection des Personnes Sud-Ouest et Outremer II and APHP ethical committee). Clinical and biological annotations of the samples have been declared to the CNIL (Comité National Informatique et Libertés i.e. Data processing and Liberties National Committee). Frozen cells were thawed in IMDM medium with 20% FBS and immediately processed for treatment. All patients were diagnosed at the Department of Hematology of Toulouse University Hospital.
Co-cultures. […]
Flow cytometry. Apoptotic cells were detected with Annexin V-FITC detection kit from BD Pharmingen (San Diego, Calif., USA) according to the manufacturer instructions. […] Data were collected on a LSRII or a LSRFortessa cytometer (BD Biosciences), and analyzed with FlowJo software. […]

[7] = molecular target: Cdc25A (Homo sapiens, UniProt P30304); settings: cited from earlier work
Sequence of Cdc25A (P30304 whole entry): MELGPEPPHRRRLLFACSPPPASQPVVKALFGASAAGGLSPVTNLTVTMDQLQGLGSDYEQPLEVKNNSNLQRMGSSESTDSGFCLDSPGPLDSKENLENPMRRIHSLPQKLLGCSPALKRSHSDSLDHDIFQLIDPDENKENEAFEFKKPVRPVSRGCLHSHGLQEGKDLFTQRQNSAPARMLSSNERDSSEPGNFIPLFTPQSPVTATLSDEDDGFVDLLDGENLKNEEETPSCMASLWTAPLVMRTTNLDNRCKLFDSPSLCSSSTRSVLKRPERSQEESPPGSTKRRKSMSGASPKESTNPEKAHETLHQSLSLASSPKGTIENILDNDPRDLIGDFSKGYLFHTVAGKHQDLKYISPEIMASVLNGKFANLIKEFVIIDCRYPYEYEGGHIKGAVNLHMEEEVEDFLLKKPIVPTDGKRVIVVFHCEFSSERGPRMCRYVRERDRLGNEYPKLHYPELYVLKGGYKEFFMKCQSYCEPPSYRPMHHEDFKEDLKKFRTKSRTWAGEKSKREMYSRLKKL

[8] = molecular target: T1, Cdc25B (Homo sapiens, UniProt P30305); settings: cited from earlier work
T1 sequence (P30305 1-580): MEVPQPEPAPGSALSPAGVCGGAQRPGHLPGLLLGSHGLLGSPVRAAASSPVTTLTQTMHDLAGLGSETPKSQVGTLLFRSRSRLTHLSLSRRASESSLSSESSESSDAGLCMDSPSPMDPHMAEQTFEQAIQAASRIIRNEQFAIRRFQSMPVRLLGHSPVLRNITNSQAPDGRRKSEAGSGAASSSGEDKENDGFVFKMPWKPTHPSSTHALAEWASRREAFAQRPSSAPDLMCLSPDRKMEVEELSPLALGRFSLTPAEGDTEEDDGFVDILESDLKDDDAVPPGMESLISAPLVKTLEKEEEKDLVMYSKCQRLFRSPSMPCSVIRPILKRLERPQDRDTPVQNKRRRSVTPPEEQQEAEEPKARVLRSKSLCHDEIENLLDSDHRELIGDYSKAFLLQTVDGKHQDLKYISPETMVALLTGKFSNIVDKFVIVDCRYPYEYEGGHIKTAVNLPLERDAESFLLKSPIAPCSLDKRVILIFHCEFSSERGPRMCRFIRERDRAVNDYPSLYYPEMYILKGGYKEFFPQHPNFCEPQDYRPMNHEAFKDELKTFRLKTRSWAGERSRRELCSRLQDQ

[9] = molecular target: Cdc25C (Homo sapiens, UniProt P30307); settings: cited from earlier work
Sequence of Cdc25C (P30307 whole entry): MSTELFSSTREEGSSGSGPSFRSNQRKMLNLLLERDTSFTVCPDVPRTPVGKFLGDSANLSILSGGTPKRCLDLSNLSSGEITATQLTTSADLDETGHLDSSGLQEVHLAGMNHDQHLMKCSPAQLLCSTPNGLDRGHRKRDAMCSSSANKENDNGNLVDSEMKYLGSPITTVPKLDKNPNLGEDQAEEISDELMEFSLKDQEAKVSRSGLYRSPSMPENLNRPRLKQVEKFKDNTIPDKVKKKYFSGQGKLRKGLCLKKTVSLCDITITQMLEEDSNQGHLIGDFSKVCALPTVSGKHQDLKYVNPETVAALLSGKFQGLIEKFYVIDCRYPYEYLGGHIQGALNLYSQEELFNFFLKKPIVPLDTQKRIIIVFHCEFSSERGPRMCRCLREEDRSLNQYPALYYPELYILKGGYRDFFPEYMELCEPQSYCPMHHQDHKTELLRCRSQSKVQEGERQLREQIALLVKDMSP

[10] = system: human cell lines (tumor cell proliferation); settings: cited from earlier work
[11] = system: Mia-Paca-2 tumors; settings: active after oral administration; cited from earlier work

In the case of `O=C1C(SCCO)=C(SCCO)C(=O)N1c1ccc(-c2ccccc2)cc1` [PM20], the IC50 [1] is given as 700 nM and the “growth of transplanted rat hepatoma cells in vivo” value [2] is given as “inhibits the growth”.

In the case of `CC(C)(C)c1cc(NC(=O)Nc2ccc(-c3cn4c(n3)sc3cc(OCCN5CCOCC5)ccc34)cc2)no1` [AC220, quizartinib], the CDC25A protein level ([3]; MV4-11 and MOLM-14 cells) is reported as “induced CDC25A down-regulation”.

For `c1ccc(-c2cnc(Nc3ccc(OCCN4CCCC4)cc3)s2)cc1` [FLT3 inhibitor III], the CDC25A protein level ([3]; KG1, HL-60 (FLT3-wild type) and K562 (FLT3 non-expressing) cells) was “did not modify”, the CDC25A protein level ([3]; MV4-11 and MOLM-14 cells) was “induced CDC25A down-regulation” and the “stability of CDC25A protein (half-life with cycloheximide)” value ([3]; cycloheximide 50 μg/mL, inhibitor 100 nM) was “did not significantly modify”. The “accumulation of CDC25A protein (rate of synthesis)” value ([3]; time course, 100 nM, FIG. 3a) was “significantly decreased” and the “CDC25A mRNA level” value [4] was “significantly reduced”.

For `O=C1C(SCCO)=C(SCCO)C(=O)c2ccccc21` [NSC-95397, reference compound], the “CD11b, CD14 and CD15 markers expression” value [5] was “modifications”, the nuclear morphology [5] was “nuclear morphological changes” and the “differentiation of FLT3-wild type samples” value [6] was “no evidence of differentiation”.

For `Cc1nc2c(s1)C(=O)C=C(NCCN(C)C)C2=O` [BN82685, reference compound], the IC50 [7] is listed as 250 nM, the IC50 [8] is listed as 250 nM and the IC50 [9] is listed as 171 nM. The “growth inhibition in presence of classical resistance mechanisms (drug efflux pumps, P-glycoprotein, multi-drug resistance proteins)” value [10] was “unaffected”, the “duration of proliferation inhibition after short treatment” value ([10]; treatment time 1 h) was 96 h and the “growth of Mia-Paca-2 tumors xenografted into nude mice” value [11] was “inhibited the growth”.
